# From PubChem BioAssay (NCI)
#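 In this assay, cells in 96-well plates receive the compound at five concentrations for 48 hours. Endpoints are linearly interpolated between the surrounding concentrations. GI50 marks 50% less growth. Definition used: TGI = concentration required for complete inhibition of growth.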
# Tests used:
# Assay in all cases: NCI-60 cell line screen, 48 h
# SK-MEL-28 melanoma = tested on: SK-MEL-28 melanoma
# UACC-257 melanoma = tested on: UACC-257 melanoma
# NCI-H522 lung = tested on: NCI-H522 lung
# U251 CNS = tested on: U251 CNS
# TK-10 renal = tested on: TK-10 renal
# RXF 393 renal = tested on: RXF 393 renal
# IGROV1 ovarian = tested on: IGROV1 ovarian
# CAKI-1 renal = tested on: CAKI-1 renal
# CCRF-CEM leukemia = tested on: CCRF-CEM leukemia
# BT-549 breast = tested on: BT-549 breast
# SR leukemia = tested on: SR leukemia
# NCI/ADR-RES ovarian = tested on: NCI/ADR-RES ovarian
# HCT-15 colon = tested on: HCT-15 colon
# LOX IMVI melanoma = tested on: LOX IMVI melanoma
# A549 NSCLC = tested on: A549 NSCLC
# HT29 colon = tested on: HT29 colon
# HCT-116 colon = tested on: HCT-116 colon
# MALME-3M melanoma = tested on: MALME-3M melanoma
# 786-0 renal = tested on: 786-0 renal
# OVCAR-5 ovarian = tested on: OVCAR-5 ovarian
# K-562 leukemia = tested on: K-562 leukemia
# NCI-H226 lung = tested on: NCI-H226 lung
# A498 renal = tested on: A498 renal
# OVCAR-4 ovarian = tested on: OVCAR-4 ovarian
# ACHN renal = tested on: ACHN renal
# MDA-MB-231 breast = tested on: MDA-MB-231 breast
# SF-295 CNS = tested on: SF-295 CNS
# NCI-H23 lung = tested on: NCI-H23 lung
# M14 melanoma = tested on: M14 melanoma
# HCC-2998 colon = tested on: HCC-2998 colon
# OVCAR-3 ovarian = tested on: OVCAR-3 ovarian
# COLO 205 colon = tested on: COLO 205 colon
# MDA-MB-435 = tested on: MDA-MB-435
# OVCAR-8 ovarian = tested on: OVCAR-8 ovarian
# SW-620 colon = tested on: SW-620 colon
# HS 578T breast = tested on: HS 578T breast
# HOP-62 NSCLC = tested on: HOP-62 NSCLC
# DU-145 prostate = tested on: DU-145 prostate
# MCF7 breast = tested on: MCF7 breast
# SN12C renal = tested on: SN12C renal
# EKVX NSCLC = tested on: EKVX NSCLC
# SF-268 CNS = tested on: SF-268 CNS
# HOP-92 NSCLC = tested on: HOP-92 NSCLC
# HL-60(TB) leukemia = tested on: HL-60(TB) leukemia
# SK-MEL-2 melanoma = tested on: SK-MEL-2 melanoma
# SNB-75 CNS = tested on: SNB-75 CNS
# MOLT-4 leukemia = tested on: MOLT-4 leukemia
# T-47D breast = tested on: T-47D breast
# SK-MEL-5 melanoma = tested on: SK-MEL-5 melanoma
# RPMI-8226 leukemia = tested on: RPMI-8226 leukemia
# SK-OV-3 ovarian = tested on: SK-OV-3 ovarian
# SF-539 CNS = tested on: SF-539 CNS
# UACC-62 melanoma = tested on: UACC-62 melanoma
# SNB-19 CNS = tested on: SNB-19 CNS
# KM12 colon = tested on: KM12 colon
# UO-31 renal = tested on: UO-31 renal
# PC-3 prostate = tested on: PC-3 prostate
# NCI-H460 lung = tested on: NCI-H460 lung
smiles,measurement,setting,value
c1ccc(-c2ccc(-c3ccc(C4=NCCN4)cc3)o2)cc1,TGI,SK-MEL-28 melanoma,3.75 µM
same,TGI,UACC-257 melanoma,4.89 µM
same,TGI,NCI-H522 lung,4.21 µM
same,TGI,U251 CNS,3.93 µM
same,TGI,TK-10 renal,11.4 µM
same,TGI,RXF 393 renal,6.53 µM
same,TGI,IGROV1 ovarian,7.52 µM
same,TGI,CAKI-1 renal,5.36 µM
same,TGI,CCRF-CEM leukemia,4.46 µM
same,TGI,BT-549 breast,17.3 µM
same,TGI,SR leukemia,7.43 µM
same,TGI,NCI/ADR-RES ovarian,19.7 µM
same,TGI,HCT-15 colon,4.19 µM
same,TGI,LOX IMVI melanoma,4.01 µM
same,TGI,A549 NSCLC,7.8 µM
same,TGI,HT29 colon,4.94 µM
same,TGI,HCT-116 colon,3.42 µM
same,TGI,MALME-3M melanoma,2.17 µM
same,TGI,786-0 renal,3.1 µM
same,TGI,OVCAR-5 ovarian,7.9 µM
same,TGI,K-562 leukemia,3.44 µM
same,TGI,NCI-H226 lung,6.15 µM
same,TGI,A498 renal,3.65 µM
same,TGI,OVCAR-4 ovarian,15 µM
same,TGI,ACHN renal,7.97 µM
same,TGI,MDA-MB-231 breast,3.89 µM
same,TGI,SF-295 CNS,3.82 µM
same,TGI,NCI-H23 lung,17.5 µM
same,TGI,M14 melanoma,3.1 µM
same,TGI,HCC-2998 colon,2.81 µM
same,TGI,OVCAR-3 ovarian,18 µM
same,TGI,COLO 205 colon,3.31 µM
same,TGI,MDA-MB-435,3.84 µM
same,TGI,OVCAR-8 ovarian,15.2 µM
same,TGI,SW-620 colon,4.42 µM
same,TGI,HS 578T breast,2.8 µM
same,TGI,HOP-62 NSCLC,12.3 µM
same,TGI,DU-145 prostate,10.3 µM
same,TGI,MCF7 breast,3.68 µM
same,TGI,SN12C renal,11.4 µM
same,TGI,EKVX NSCLC,10.8 µM
same,TGI,SF-268 CNS,8.4 µM
same,TGI,HOP-92 NSCLC,5.03 µM
same,TGI,HL-60(TB) leukemia,3.74 µM
same,TGI,SK-MEL-2 melanoma,3.51 µM
same,TGI,SNB-75 CNS,5.17 µM
same,TGI,MOLT-4 leukemia,4.59 µM
same,TGI,T-47D breast,7.06 µM
same,TGI,SK-MEL-5 melanoma,3.92 µM
same,TGI,RPMI-8226 leukemia,2.88 µM
same,TGI,SK-OV-3 ovarian,11.5 µM
same,TGI,SF-539 CNS,4.4 µM
same,TGI,UACC-62 melanoma,3.2 µM
same,TGI,SNB-19 CNS,6.3 µM
same,TGI,KM12 colon,4.43 µM
same,TGI,UO-31 renal,3.14 µM
same,TGI,PC-3 prostate,5.54 µM
c1ccc(-c2n(Cc3ccc4ccccc4n3)cc[n+]2Cc2ccc3ccccc3n2)cc1,GI50,SK-MEL-28 melanoma,0.983 µM
same,TGI,SK-MEL-28 melanoma,12.9 µM
same,GI50,UACC-257 melanoma,1.01 µM
same,TGI,UACC-257 melanoma,5.21 µM
same,GI50,NCI-H522 lung,1.92 µM
same,TGI,NCI-H522 lung,8.72 µM
same,GI50,U251 CNS,2.66 µM
same,TGI,U251 CNS,12.4 µM
same,GI50,TK-10 renal,5.38 µM
same,TGI,TK-10 renal,18.3 µM
same,GI50,RXF 393 renal,2.8 µM
same,TGI,RXF 393 renal,14 µM
same,GI50,IGROV1 ovarian,1.87 µM
same,TGI,IGROV1 ovarian,16.4 µM
same,GI50,CCRF-CEM leukemia,2.9 µM
same,TGI,CCRF-CEM leukemia,14.7 µM
same,GI50,BT-549 breast,1.65 µM
same,TGI,BT-549 breast,8.48 µM
same,GI50,SR leukemia,1.29 µM
same,TGI,SR leukemia,13.2 µM
same,GI50,NCI/ADR-RES ovarian,> 100 µM
same,TGI,NCI/ADR-RES ovarian,> 100 µM
same,GI50,HCT-15 colon,20.2 µM
same,TGI,HCT-15 colon,85.6 µM
same,GI50,LOX IMVI melanoma,2.35 µM
same,TGI,LOX IMVI melanoma,10.8 µM
same,GI50,A549 NSCLC,13.5 µM
same,TGI,A549 NSCLC,51.1 µM
same,GI50,HT29 colon,2.39 µM
same,TGI,HT29 colon,11.5 µM
same,GI50,HCT-116 colon,2.06 µM
same,TGI,HCT-116 colon,11.4 µM
same,GI50,MALME-3M melanoma,1.57 µM
same,TGI,MALME-3M melanoma,8.02 µM
same,GI50,786-0 renal,5.45 µM
same,TGI,786-0 renal,18.5 µM
same,GI50,OVCAR-5 ovarian,5 µM
same,TGI,OVCAR-5 ovarian,21.5 µM
same,GI50,K-562 leukemia,0.754 µM
same,TGI,K-562 leukemia,13.6 µM
same,GI50,NCI-H226 lung,1.76 µM
same,TGI,NCI-H226 lung,9.72 µM
same,GI50,A498 renal,1.81 µM
same,TGI,A498 renal,10.1 µM
same,GI50,OVCAR-4 ovarian,0.709 µM
same,TGI,OVCAR-4 ovarian,7.02 µM
same,GI50,MDA-MB-231 breast,1.69 µM
same,TGI,MDA-MB-231 breast,8.58 µM
same,GI50,SF-295 CNS,3.22 µM
same,TGI,SF-295 CNS,14.5 µM
same,GI50,NCI-H23 lung,1.23 µM
same,TGI,NCI-H23 lung,9.58 µM
same,GI50,M14 melanoma,2.35 µM
same,TGI,M14 melanoma,11.5 µM
same,GI50,HCC-2998 colon,1.93 µM
same,TGI,HCC-2998 colon,11.7 µM
same,GI50,OVCAR-3 ovarian,1.05 µM
same,TGI,OVCAR-3 ovarian,12.1 µM
same,GI50,COLO 205 colon,1.41 µM
same,TGI,COLO 205 colon,4.05 µM
same,GI50,MDA-MB-435,1.8 µM
same,TGI,MDA-MB-435,10.2 µM
same,GI50,OVCAR-8 ovarian,3.25 µM
same,TGI,OVCAR-8 ovarian,13.9 µM
same,GI50,SW-620 colon,2.65 µM
same,TGI,SW-620 colon,14.5 µM
same,GI50,HS 578T breast,2.76 µM
same,TGI,HS 578T breast,14.3 µM
same,GI50,HOP-62 NSCLC,5.66 µM
same,TGI,HOP-62 NSCLC,20.8 µM
same,GI50,DU-145 prostate,4.29 µM
same,TGI,DU-145 prostate,18.5 µM
same,GI50,MCF7 breast,1.87 µM
same,TGI,MCF7 breast,11.1 µM
same,GI50,SN12C renal,2.25 µM
same,TGI,SN12C renal,11.2 µM
same,GI50,EKVX NSCLC,2.91 µM
same,TGI,EKVX NSCLC,31.4 µM
same,GI50,SF-268 CNS,3.32 µM
same,TGI,SF-268 CNS,14.7 µM
same,GI50,HOP-92 NSCLC,0.269 µM
same,TGI,HOP-92 NSCLC,2.47 µM
same,GI50,HL-60(TB) leukemia,0.399 µM
same,TGI,HL-60(TB) leukemia,1.7 µM
same,GI50,SK-MEL-2 melanoma,1.96 µM
same,TGI,SK-MEL-2 melanoma,5.96 µM
same,GI50,SNB-75 CNS,1.33 µM
same,TGI,SNB-75 CNS,5.07 µM
same,GI50,MOLT-4 leukemia,4.24 µM
same,TGI,MOLT-4 leukemia,17.2 µM
same,GI50,T-47D breast,0.498 µM
same,TGI,T-47D breast,7.77 µM
same,GI50,SK-MEL-5 melanoma,0.542 µM
same,TGI,SK-MEL-5 melanoma,1.85 µM
same,GI50,RPMI-8226 leukemia,0.269 µM
same,TGI,RPMI-8226 leukemia,5.09 µM
same,GI50,SK-OV-3 ovarian,3.39 µM
same,TGI,SK-OV-3 ovarian,11.8 µM
same,GI50,SF-539 CNS,2.92 µM
same,TGI,SF-539 CNS,13.2 µM
same,GI50,UACC-62 melanoma,0.675 µM
same,TGI,UACC-62 melanoma,4.17 µM
same,GI50,SNB-19 CNS,2.18 µM
same,TGI,SNB-19 CNS,13.1 µM
same,GI50,KM12 colon,1.76 µM
same,TGI,KM12 colon,10.5 µM
same,GI50,UO-31 renal,12.6 µM
same,TGI,UO-31 renal,39.2 µM
same,GI50,PC-3 prostate,2.64 µM
same,TGI,PC-3 prostate,12.1 µM
same,GI50,NCI-H460 lung,2.49 µM
same,TGI,NCI-H460 lung,11.9 µM
